Experimental data published in the kinase profiling compilation of Christmann-Franck et al. (2016).

Tests used:
Test in all cases: KINOMEscan competition binding
Details in all cases: compound 10.0 µM
[1] = target: FLT1 (human) (UniProt P17948)
[2] = target: GSK3B (human) (UniProt P49841)
[3] = target: MST4 (human) (UniProt Q9P289)
[4] = target: MAP2K7 (human) (UniProt O14733)
[5] = target: AURKC (human) (UniProt Q9UQB9)
[6] = target: PTK2B (human) (UniProt Q14289)
[7] = target: PRKCD (human) (UniProt Q05655)
[8] = target: BTK (human) (UniProt Q06187)
[9] = target: LTK (human) (UniProt P29376)
Chain of LTK (human) (P29376 whole entry, looked up): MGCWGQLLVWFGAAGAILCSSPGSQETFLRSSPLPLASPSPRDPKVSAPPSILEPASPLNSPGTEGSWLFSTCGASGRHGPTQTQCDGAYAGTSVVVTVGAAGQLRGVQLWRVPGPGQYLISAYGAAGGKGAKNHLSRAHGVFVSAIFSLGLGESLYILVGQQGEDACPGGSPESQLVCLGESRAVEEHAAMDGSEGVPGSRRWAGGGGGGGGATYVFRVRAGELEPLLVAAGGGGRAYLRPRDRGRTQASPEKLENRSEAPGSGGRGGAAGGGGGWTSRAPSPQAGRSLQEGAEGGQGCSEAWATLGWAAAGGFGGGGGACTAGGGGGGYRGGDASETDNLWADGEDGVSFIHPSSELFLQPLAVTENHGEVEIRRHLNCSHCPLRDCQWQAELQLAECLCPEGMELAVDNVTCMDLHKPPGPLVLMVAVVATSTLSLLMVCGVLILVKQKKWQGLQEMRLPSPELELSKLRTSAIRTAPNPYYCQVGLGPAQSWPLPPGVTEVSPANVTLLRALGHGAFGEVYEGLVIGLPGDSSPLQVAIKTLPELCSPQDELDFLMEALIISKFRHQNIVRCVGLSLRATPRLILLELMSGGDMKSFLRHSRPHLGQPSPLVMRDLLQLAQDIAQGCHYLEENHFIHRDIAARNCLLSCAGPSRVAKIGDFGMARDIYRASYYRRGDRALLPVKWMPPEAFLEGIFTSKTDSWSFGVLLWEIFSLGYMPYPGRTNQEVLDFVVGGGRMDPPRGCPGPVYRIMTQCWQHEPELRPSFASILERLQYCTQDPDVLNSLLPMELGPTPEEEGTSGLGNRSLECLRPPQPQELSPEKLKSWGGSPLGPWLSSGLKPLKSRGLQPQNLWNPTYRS

[10] = target: LATS1 (human) (UniProt O95835)
[11] = target: STK32C (human) (UniProt Q86UX6)
[12] = target: ROCK1 (human) (UniProt Q13464)
[13] = target: NEK4 (human) (UniProt P51957)
[14] = target: FGFR4 (human) (UniProt P22455)
Chain of FGFR4 (human) (P22455 whole entry, looked up): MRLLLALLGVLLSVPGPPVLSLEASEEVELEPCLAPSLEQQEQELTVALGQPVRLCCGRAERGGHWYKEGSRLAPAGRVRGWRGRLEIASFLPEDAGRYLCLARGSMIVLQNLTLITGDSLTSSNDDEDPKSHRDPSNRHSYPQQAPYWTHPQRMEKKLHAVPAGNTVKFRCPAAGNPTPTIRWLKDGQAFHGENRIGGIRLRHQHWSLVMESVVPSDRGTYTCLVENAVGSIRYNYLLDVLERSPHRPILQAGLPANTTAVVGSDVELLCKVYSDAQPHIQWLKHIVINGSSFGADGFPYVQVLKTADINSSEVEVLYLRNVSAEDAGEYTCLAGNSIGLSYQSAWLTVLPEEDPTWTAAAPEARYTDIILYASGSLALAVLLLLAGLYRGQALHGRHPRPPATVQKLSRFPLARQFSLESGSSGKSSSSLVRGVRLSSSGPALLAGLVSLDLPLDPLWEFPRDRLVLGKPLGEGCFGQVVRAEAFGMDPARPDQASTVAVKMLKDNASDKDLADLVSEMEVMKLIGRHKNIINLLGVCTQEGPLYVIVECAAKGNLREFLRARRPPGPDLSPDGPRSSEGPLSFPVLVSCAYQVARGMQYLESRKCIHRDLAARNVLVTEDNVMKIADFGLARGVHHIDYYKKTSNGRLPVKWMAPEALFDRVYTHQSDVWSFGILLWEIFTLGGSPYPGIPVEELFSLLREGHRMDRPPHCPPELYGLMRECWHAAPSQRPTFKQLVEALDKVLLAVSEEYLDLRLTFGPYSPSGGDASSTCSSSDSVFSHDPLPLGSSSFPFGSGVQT

[15] = target: DCLK1 (human) (UniProt O15075)
[16] = target: MAP3K1 (human) (UniProt Q13233)
[17] = target: CAMK4 (human) (UniProt Q16566)
[18] = tested on: PIK3CA (human), P42336 [E542K]
[19] = target: ACVR2A (human) (UniProt P27037)
[20] = target: SIK3 (human) (UniProt Q9Y2K2)
Chain of SIK3 (human) (Q9Y2K2 whole entry, looked up): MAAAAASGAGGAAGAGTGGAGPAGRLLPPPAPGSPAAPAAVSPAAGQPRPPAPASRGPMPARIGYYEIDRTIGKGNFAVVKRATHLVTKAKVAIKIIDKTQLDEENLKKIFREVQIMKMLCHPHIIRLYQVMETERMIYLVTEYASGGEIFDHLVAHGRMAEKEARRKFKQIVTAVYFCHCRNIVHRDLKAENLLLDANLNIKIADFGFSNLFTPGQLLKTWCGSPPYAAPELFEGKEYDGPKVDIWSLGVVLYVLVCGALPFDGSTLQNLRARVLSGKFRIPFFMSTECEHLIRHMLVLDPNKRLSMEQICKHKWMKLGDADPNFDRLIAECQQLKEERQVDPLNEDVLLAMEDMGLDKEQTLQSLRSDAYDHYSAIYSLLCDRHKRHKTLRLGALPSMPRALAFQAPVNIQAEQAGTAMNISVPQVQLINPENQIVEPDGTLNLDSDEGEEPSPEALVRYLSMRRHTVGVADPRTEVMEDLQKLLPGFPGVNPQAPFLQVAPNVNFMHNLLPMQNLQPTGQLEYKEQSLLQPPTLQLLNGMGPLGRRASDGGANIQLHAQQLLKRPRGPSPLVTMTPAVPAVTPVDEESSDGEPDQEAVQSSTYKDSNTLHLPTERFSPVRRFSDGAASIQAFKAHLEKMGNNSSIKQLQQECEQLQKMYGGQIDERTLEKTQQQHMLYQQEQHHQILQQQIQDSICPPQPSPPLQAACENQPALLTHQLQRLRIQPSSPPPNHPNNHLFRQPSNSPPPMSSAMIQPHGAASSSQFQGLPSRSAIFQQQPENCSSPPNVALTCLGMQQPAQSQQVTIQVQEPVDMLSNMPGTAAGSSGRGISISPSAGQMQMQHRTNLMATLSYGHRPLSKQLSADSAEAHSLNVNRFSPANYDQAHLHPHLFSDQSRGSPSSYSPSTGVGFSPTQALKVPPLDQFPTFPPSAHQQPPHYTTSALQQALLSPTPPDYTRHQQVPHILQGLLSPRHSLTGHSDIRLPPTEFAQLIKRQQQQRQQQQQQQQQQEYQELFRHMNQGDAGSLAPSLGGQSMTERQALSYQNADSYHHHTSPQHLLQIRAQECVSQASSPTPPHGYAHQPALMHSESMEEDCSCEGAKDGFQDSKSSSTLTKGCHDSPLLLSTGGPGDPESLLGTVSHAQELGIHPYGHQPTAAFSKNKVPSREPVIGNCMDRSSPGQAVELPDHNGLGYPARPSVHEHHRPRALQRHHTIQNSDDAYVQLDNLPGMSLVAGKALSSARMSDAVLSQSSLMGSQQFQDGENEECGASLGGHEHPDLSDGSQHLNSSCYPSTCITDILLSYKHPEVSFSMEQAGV

[21] = target: CDK5 (human) (UniProt Q00535)
[22] = target: ADCK4 (human) (UniProt Q96D53)
[23] = target: SNRK (human) (UniProt Q9NRH2)
[24] = target: PIM2 (human) (UniProt Q9P1W9)
[25] = target: CAMK2D (human) (UniProt Q13557)
[26] = target: CaMK1 (human) (UniProt Q14012)
[27] = target: CDK16 (human) (UniProt Q00536)
[28] = tested on: MET (human), P08581 [M1250T]
[29] = target: MAPK14 (human) (UniProt Q16539)
Chain of MAPK14 (human) (Q16539 whole entry, looked up): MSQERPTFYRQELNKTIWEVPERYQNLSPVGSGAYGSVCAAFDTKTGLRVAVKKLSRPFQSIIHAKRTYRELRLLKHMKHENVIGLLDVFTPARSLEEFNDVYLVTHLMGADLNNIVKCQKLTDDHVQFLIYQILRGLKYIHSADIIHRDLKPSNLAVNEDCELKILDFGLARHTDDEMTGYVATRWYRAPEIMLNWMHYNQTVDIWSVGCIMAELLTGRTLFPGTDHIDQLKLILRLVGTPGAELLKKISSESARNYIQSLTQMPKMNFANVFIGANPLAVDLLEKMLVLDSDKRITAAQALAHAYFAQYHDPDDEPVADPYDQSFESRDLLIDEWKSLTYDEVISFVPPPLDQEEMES

[30] = target: CAMKK1 (human) (UniProt Q8N5S9)
[31] = target: MATK (human) (UniProt P42679)
[32] = target: ROCK2 (human) (UniProt O75116)
[33] = target: TBK1 (human) (UniProt Q9UHD2)
[34] = target: EPHA5 (human) (UniProt P54756)
[35] = target: HIPK2 (human) (UniProt Q9H2X6)
[36] = target: HIPK4 (human) (UniProt Q8NE63)
[37] = target: DAPK3 (human) (UniProt O43293)
[38] = target: CDKL5 (human) (UniProt O76039)
[39] = target: MYLK3 (human) (UniProt Q32MK0)
Chain of MYLK3 (human) (Q32MK0 whole entry, looked up): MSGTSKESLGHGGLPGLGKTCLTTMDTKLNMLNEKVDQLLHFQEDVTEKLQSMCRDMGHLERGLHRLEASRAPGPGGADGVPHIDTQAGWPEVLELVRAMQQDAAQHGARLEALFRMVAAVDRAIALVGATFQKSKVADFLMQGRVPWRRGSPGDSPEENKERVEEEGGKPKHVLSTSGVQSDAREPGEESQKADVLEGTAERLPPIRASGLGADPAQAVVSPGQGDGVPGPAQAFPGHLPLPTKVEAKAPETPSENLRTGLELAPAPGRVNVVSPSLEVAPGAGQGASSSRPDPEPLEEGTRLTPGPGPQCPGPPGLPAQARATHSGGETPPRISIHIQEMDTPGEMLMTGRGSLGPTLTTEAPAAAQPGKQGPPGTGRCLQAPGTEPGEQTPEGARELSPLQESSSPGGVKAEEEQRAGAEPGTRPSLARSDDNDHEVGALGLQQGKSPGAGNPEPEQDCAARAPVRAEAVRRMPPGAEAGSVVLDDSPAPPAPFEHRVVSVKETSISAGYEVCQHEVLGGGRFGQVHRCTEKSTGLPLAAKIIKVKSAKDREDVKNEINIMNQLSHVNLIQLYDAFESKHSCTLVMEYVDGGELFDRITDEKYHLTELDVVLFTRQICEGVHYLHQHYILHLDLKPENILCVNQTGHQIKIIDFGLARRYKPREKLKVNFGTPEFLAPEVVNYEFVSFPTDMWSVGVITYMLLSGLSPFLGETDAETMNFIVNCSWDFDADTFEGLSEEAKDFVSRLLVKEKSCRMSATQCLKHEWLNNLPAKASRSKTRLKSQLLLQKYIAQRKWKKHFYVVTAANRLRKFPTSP

[40] = target: EPHA6 (human) (UniProt Q9UF33)

Chain of MST4 (human) (Q9P289 whole entry, looked up): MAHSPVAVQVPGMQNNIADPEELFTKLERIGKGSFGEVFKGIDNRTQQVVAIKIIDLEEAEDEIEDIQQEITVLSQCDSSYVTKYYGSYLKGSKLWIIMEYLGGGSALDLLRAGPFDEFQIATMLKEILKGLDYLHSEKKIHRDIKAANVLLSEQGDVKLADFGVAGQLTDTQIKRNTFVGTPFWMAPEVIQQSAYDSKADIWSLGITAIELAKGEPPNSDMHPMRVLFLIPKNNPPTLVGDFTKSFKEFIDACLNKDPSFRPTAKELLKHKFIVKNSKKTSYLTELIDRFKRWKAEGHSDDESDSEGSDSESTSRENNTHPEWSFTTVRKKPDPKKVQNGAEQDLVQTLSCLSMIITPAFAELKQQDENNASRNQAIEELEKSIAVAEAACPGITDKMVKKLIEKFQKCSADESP
Chain of GSK3B (human) (P49841 whole entry, looked up): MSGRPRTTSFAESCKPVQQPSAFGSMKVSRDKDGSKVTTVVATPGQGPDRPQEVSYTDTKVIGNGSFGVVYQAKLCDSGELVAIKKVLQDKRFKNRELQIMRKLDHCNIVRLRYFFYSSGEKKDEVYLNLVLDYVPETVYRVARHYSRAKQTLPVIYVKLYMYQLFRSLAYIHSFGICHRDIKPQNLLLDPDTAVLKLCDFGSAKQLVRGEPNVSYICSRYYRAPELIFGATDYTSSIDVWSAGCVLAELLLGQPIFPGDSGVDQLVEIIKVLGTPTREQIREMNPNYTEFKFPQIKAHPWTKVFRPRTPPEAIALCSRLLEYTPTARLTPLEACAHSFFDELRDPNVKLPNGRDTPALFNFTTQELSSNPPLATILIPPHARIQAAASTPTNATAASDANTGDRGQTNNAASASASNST

Structure (SMILES): CCN1CCN(Cc2ccc(NC(=O)c3ccc(C)c(/C=C/c4cnc5[nH]ccc5c4OC)c3)cc2C(F)(F)F)CC1
- kinase still bound, per cent of control [1]: 2.4%
- kinase still bound, per cent of control [2]: 99%
- kinase still bound, per cent of control [3]: 18%
- kinase still bound, per cent of control [4]: 1.4%
- kinase still bound, per cent of control [5]: 1.5%
- kinase still bound, per cent of control [6]: 0.75%
- kinase still bound, per cent of control [7]: 49%
- kinase still bound, per cent of control [8]: 0.3%
- kinase still bound, per cent of control [9]: 62%
- kinase still bound, per cent of control [10]: 32%
- kinase still bound, per cent of control [11]: 100%
- kinase still bound, per cent of control [12]: 43%
- kinase still bound, per cent of control [13]: 33%
- kinase still bound, per cent of control [14]: 0.45%
- kinase still bound, per cent of control [15]: 93%
- kinase still bound, per cent of control [16]: 71%
- kinase still bound, per cent of control [17]: 100%
- kinase still bound, per cent of control [18]: 100%
- kinase still bound, per cent of control [19]: 100%
- kinase still bound, per cent of control [20]: 100%
- kinase still bound, per cent of control [21]: 100%
- kinase still bound, per cent of control [22]: 100%
- kinase still bound, per cent of control [23]: 95%
- kinase still bound, per cent of control [24]: 100%
- kinase still bound, per cent of control [25]: 100%
- kinase still bound, per cent of control [26]: 30%
- kinase still bound, per cent of control [27]: 98%
- kinase still bound, per cent of control [28]: 26%
- kinase still bound, per cent of control [29]: 0%
- kinase still bound, per cent of control [30]: 100%
- kinase still bound, per cent of control [31]: 100%
- kinase still bound, per cent of control [32]: 34%
- kinase still bound, per cent of control [33]: 55%
- kinase still bound, per cent of control [34]: 3.6%
- kinase still bound, per cent of control [35]: 41%
- kinase still bound, per cent of control [36]: 5.5%
- kinase still bound, per cent of control [37]: 99%
- kinase still bound, per cent of control [38]: 78%
- kinase still bound, per cent of control [39]: 100%
- kinase still bound, per cent of control [40]: 0%
